This is an account of results in PubChem BioAssay AID1288 (Columbia University Molecular Screening Center, 2008).

Active and inactive are the calls of the source. How the calls were made is not given here.

As a reminder, the inhibition is the change of the read-out against control, counted positive when it falls.

The assay in a line: E-selectin induction blockers, endothelial cells – imaging, retest plus dose response, cell count, confirmation (AID 1288).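 Further: 0% = stimulated vehicle wells and 100% = unstimulated vehicle wells.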 The conditions noted are these: human endothelial cells, TNFa-induced E-selectin, imaging; at 2 µM; active compounds read high.
In the case of `COc1ccc(CCNC(=O)C(=O)NCc2ccc(C)cc2)cc1OC`, the inhibition was 8.92% (inactive).
Under `COc1ccc(N(CC(=O)Nc2ccc3c(c2)OCO3)S(C)(=O)=O)c(OC)c1` stands -1.1% (inactive); under `CN(C)CC1CSCCC1(O)c1ccc(Cl)cc1` (centres undefined), 20.4% (inactive); under `COc1ccc(S(=O)(=O)Nc2cccc(S(=O)(=O)N3CCCCCC3)c2)cc1`, 31% (inactive).
As to `Cc1ccc2cc3c(NC(=O)C(C)C)nn(C)c3nc2c1`, the inhibition is 9.56% (inactive).
As to `CCCSc1nc(C)c(-c2csc(C(C#N)=C3CCCC3)n2)cc1C#N`, the inhibition was 8.04% (inactive).
Turning to `COc1ccc2cc(S(=O)(=O)N3CCN(C)CC3)ccc2c1`, the inhibition is 16.8% (inactive).
Under `CCCCOc1ccc(-c2nnn(C(C)C(=O)OCC)n2)cc1` (centres undefined) stands 27.1% (inactive); under `COc1ccc(OC)c2sc(NC(=O)CCS(=O)(=O)c3ccccc3)nc12`, 5.59% (inactive).
Under `c1ccc(NC2=NCCCCS2)cc1` stands 15.9% (inactive); under `Cn1cc([N+](=O)[O-])c(C(=O)Nc2ccc(Br)cn2)n1`, 7.96% (inactive).
Under `Cc1cc([N+](=O)[O-])nn1CC(=O)Nc1sc2c(c1C(N)=O)CCCC2` stands 18.3% (inactive); under `C1=C(c2ccc(-c3ccccc3)cc2)Nc2ncnn2C1c1ccco1` (centres undefined), 26.2% (inactive); under `CCCCN(C(=O)c1cc(OC)c(OC)c(OC)c1)C1=CC2CCC(C1)N2C` (centres undefined), 8.59% (inactive).
For `CCC(=O)N1CCc2cc(Br)cc(S(=O)(=O)NCc3ccco3)c21`, the inhibition was 0.76% (inactive).
In the case of `COc1ccc(/C=N/NC(=O)C(C)n2cnc3ccccc3c2=O)cc1OC` (centres undefined) it was -0.71% (inactive); in that of `O=C(O)/C=C/c1ccc2ccccc2n1`, -2.31% (inactive).
In the case of `CCOC(=O)N1CCN(C(=S)NC(=O)c2cncc(Br)c2)CC1` it was 19.8% (inactive); in that of `CC(C)C(c1nnnn1Cc1ccccc1)N1CCC(C(N)=O)CC1` (centres undefined), 9.62% (inactive).
With `CCOC(=O)c1c(C)[nH]c(C(=O)OCCOc2ccccc2C)c1C`, the inhibition is 0.85% (inactive).
In the case of `COc1ccc(-c2ccc(C(=S)N3CCN(C(C)=O)CC3)o2)cc1` it was 3.01% (inactive); in that of `COc1ccccc1NC(=O)CSc1nnc2ccc(-c3cccnc3)nn12`, -0.72% (inactive).
For the compound `Cc1ccccc1Cn1ccc(NC(=O)c2cnn3c2NC(c2ccccc2)CC3C(F)(F)F)n1` (centres undefined), the inhibition is 2.9% (inactive).
In the case of `CCOC(=O)c1c(NC(=O)CSc2nnc(C)c(=O)[nH]2)sc(C)c1C` it was 8.64% (inactive); in that of `COc1ccc(CCn2c(=S)[nH]c3cc(C(=O)NCc4ccco4)ccc3c2=O)cc1OC`, 11% (inactive).
In the case of `CC1(C)CC(=O)C(C=NCC2CCCO2)=C(O)C1` (centres undefined) it was 17.9% (inactive); in that of `Nc1cccc(-n2nncc2-c2ccc(Cl)cc2)c1`, 18.2% (inactive); in that of `O=S1(=O)CCC(NC(=S)N2CCCCCC2)C1` (centres undefined), 18.2% (inactive).
`O=C(Nc1nnc(C2CC2)s1)c1cc(-c2ccccc2)nn1-c1ccccc1`: the inhibition is 6.68% (inactive).
With `COc1ccc(S(=O)(=O)N(CC(N)=O)C2CCCCC2)cc1Cl`, the inhibition is 5.95% (inactive).
In the case of `COC(=O)Cn1cnc2c1c(=O)n(C)c(=O)n2C` it was 6.02% (inactive); in that of `COC(=O)c1c(-c2ccccc2)csc1NC(=O)c1ccco1`, 14.7% (inactive).
In the case of `CCCCN(CCCC)S(=O)(=O)c1ccc(NC(=O)c2cccs2)cc1` it was -4.73% (inactive); in that of `COc1ccc(-c2n[nH]c(C(F)(F)F)c2-c2cc3ccccc3o2)c(O)c1`, 3.2% (inactive).
Under `O=C1c2ccccc2C(Nc2ccc(S(=O)(=O)N3CCCCCC3)cc2)N1Cc1ccco1` (centres undefined) stands 1.55% (inactive); under `Cc1cc(=O)[nH]c(SCC(=O)NCc2ccco2)n1`, 5.37% (inactive).
As for `Cc1cc(C)cc(NC(=S)NC2CC3CCCC(C2)N3C2CC2)c1` (centres undefined), the inhibition is 0.55% (inactive).
In the case of `O=c1[nH]c2cc(NCCO)c([N+](=O)[O-])cc2[nH]1` it was 15.2% (inactive); in that of `N/C(=N\c1nc(CSc2ccc(Cl)cc2)cc(=O)[nH]1)Nc1cccc2ccccc12`, 6.58% (inactive); in that of `COC(=O)c1nnn(-c2ccc(Cl)c(Cl)c2)c1C(=O)OC`, 11.3% (inactive).
Under `O=C(O)C(=O)/C(=C\c1ccccc1)c1ccc2ccccc2n1` stands 23.7% (inactive).
In the case of `Nc1ccc(Br)cc1-c1nc2ccccc2[nH]c1=O`, the inhibition was -8.67% (inactive).
As for `COc1cc(S(=O)(=O)NC2CCCCC2C)ccc1Cl` (centres undefined), the inhibition is 9.69% (inactive).
Under `CCC(C)(C)n1nnnc1C(c1ccc(OC)c(OC)c1)N1CCN(c2ccccc2)CC1` (centres undefined) stands 2.72% (inactive).
As for `COc1ccc(NC(=O)c2cc(-c3ccc(OC)c(OC)c3)on2)cc1OC`, the inhibition was 9.77% (inactive).
Under `C/C(=N\Nc1cccc2cccnc12)c1ccccc1O` stands -0.47% (inactive).
In the case of `Cc1ccc(CNC(=O)C2CCN(S(=O)(=O)c3c(C)noc3/C=C/c3ccco3)CC2)cc1` it was 4.12% (inactive); in that of `COc1ccc(N=C2SCC(=O)N2c2ccc(OC)cc2)cc1`, -8.28% (inactive).
In the case of `COC(=O)c1cc2sc(Cl)cc2n1CC(=O)Nc1cccc(SC)c1` it was 2.57% (inactive).
With `CCN(CC)CCNS(=O)(=O)c1ccc(/C=C/C(=O)O)cc1`, the inhibition was 13.4% (inactive).
With `Cn1nnnc1SCC(=O)Nc1cccc([N+](=O)[O-])c1`, the inhibition was 2.78% (inactive).
Under `COc1ccc(S(=O)(=O)Nc2ccc(C)cc2)cc1N(C)S(=O)(=O)c1ccc(Cl)cc1` stands 3.82% (inactive); under `CNC(=S)N=Nc1c(O)[nH]c2ccc(C(C)C)cc12`, 9.53% (inactive).
As to `Cc1cc(SCC(=O)c2cccs2)nc2ccccc12`, the inhibition is 8.62% (inactive).
Under `COCCNC(=O)c1ccccc1NC(=O)c1cccc([N+](=O)[O-])c1C` stands 0.34% (inactive).
In the case of `O=C(Nc1nnc(SCc2ccccc2)s1)c1cccc([N+](=O)[O-])c1` it was 6.01% (inactive); in that of `CCCc1c(O)c2ccccc2[nH]c1=O`, 0.12% (inactive).
Under `Cc1ccc2c(c1)C(c1ccc(F)cc1)N(C(=O)c1cc3ccccc3oc1=O)CC(=O)N2` (centres undefined) stands -3.89% (inactive).
Take `O=c1cc(O)n(-c2ccc(F)cc2)c(=S)[nH]1`: the inhibition was -0.2% (inactive).
As for `Cc1ccc(C)c(N(CC(=O)NCCSCc2ccco2)S(C)(=O)=O)c1`, the inhibition was 6.59% (inactive).
In the case of `CN(C(=S)Nc1ccc(Oc2ccccc2)cc1)c1ccc(O)cc1` it was 12.6% (inactive).
Under `Cc1cc(=O)n2nc(-c3ccccc3)sc2c1C#N` stands 1.2% (inactive); under `CCOC(=O)N1CCN(C(=O)c2ccc(Oc3ccc([N+](=O)[O-])cc3)cc2)CC1`, 18.9% (inactive); under `NC(=S)NNc1cccc(Cl)c1`, 6.61% (inactive).
